From patent publication US20110294992A1, “METAL RESPONSIVE MRI-AGENTS” (The Regents of the University of California, priority 2010, published 2011)
pKd: −log10 of the molar value. Values joined by “and” are separate entries in the source; they are usually repeats but may differ in a detail not shown here. Equal entries are not always repeated. Marks after values point to notes of the source that are not given here.

Assays:
[1] = Dysprosium-induced 17O NMR shift (DIS) experiments for q; format: physicochemical; details: 20 mM HEPES, pH 7
Method: FIG. 8. Plot of [DyCG2] vs. −Δ ppm of the ^17O signal of H2O in the absence and presence of 1 equiv Cu^+. Spectra were acquired at room temperature in 20 mM HEPES buffer, pH 7, at a ^17O Larmor frequency of 67.8 MHz.
To circumvent these issues, we turned our attention to an alternative method for obtaining q values, namely the application of ^17O NMR spectroscopy to Dy^3+ analogs of the CG sensors (DyCG2-6).^114 Specifically, interactions of water ligands with paramagnetic Dy^3+ ions lead to an upfield shift of the ^17O signals of H2O in a manner proportional to both the concentration of Dy^3+ and q. Moreover, this lanthanide-induced shift is largely insensitive to the non-water ligands coordinated to the paramagnetic metal center.^114 Dysprosium-induced shift (DIS) experiments for CG2 and CG3 were performed in 20 mM HEPES buffered to pH 7; CG4 and CG5 spectra were acquired in 10% acetonitrile in 20 mM HEPES buffered to pH 7 owing to solubility and stability of the Cu^+-bound complexes at higher Dy^3+ concentrations required for the DIS measurements (1-200 mmol/kg H2O). Dy concentrations were calculated using molality (with respect to H2O) since the ^17O shift represents the interaction between Dy^3+ and H2O; addition of CH3CN aids in stabilizing certain complexes but should not affect the DIS. The spectral results were calibrated to a DyCl3 standard (q=9) to determine the number of bound water molecules for the CG sensors with and without added Cu^+. A plot of varying DyCl3 concentrations versus DIS in pH 7 HEPES buffer has a slope of 324 ppm/(mol/kg H2O), which corresponds to a 36 ppm/(mol/kg H2O) shift per bound water molecule.
The effects of DyCG2 on the chemical shift of ^17O-labeled H2O were determined in the absence and presence of 1 equiv Cu^+ at various concentrations of Dy^3+ (FIG. 8). In the absence of Cu^+, the measured ^17O shift response for DyCG2 is 9 ppm/(mol/kg H2O), corresponding to q=0.3. When 1 equiv of Cu^+ is added, the observed shift response increases to 72 ppm/(mol/kg H2O), corresponding to q=2.0. […] DIS measurements of DyCG4 and DyCG5 without Cu^+ show slopes of 7 ppm/(mol/kg H2O) (q=0.2) and 12 ppm/(mol/kg H2O) (q=0.3), respectively. Cu^+ binding increases the DIS slopes for DyCG4 and DyCG5 to […] ([…]) and 41 ppm/(mol/kg H2O) (q=1.0), respectively.

[2] = Longitudinal relaxivity (r1) from T1 measurements at 60 MHz, absence of copper; format: physicochemical; details: for r1 (no Cu): no copper, 60 MHz, 20 mM HEPES buffer, pH 7, 37° C., 0.2 mM Gd^3+
Method: (§1) The longitudinal relaxivity values for the CG contrast agents in the absence or presence of copper ions were determined using T1 measurements at 60 MHz. Studies were performed at 37° C. in 20 mM HEPES buffered to pH 7, and solutions of the purified CG sensors for relaxivity experiments contained 0.2 mM Gd^3+ as determined by ICP-OES. Spectroscopic data are collected in Table 1.
Nuclear magnetic relaxation dispersion (NMRD) experiments provide supporting evidence for this proposal (vide infra).

[3] = Electrochemical Cu2+/Cu+ reduction potentials of copper-bound CG complexes; format: physicochemical; details: PBS buffer, pH 7.4
Method: (§2) CG6 is a unique member of the CG family that is equally responsive to both Cu^+ and Cu^2+. Addition of either Cu^+ or Cu^2+ to CG6 triggers a maximum 73% relaxivity turn-on from r1=2.2 mM^−1s^−1 to r1=3.8 mM^−1s^−1. […] On the other hand, copper-bound CG6, which responds to both Cu^+ and Cu^2+, has the least positive Cu^2+/Cu^+ reduction potential at +0.13 V.

[4] = Longitudinal relaxivity (r1) turn-on response to Cu+ from T1 measurements at 60 MHz; format: physicochemical; details: pH 7, 37° C.; for r1 (1 equiv Cu): 20 mM HEPES buffer
Method: as §1
Upon addition of up to 1 equiv of copper ions, the relaxivity values of the CG contrast agents increase, establishing the ability of these probes to sense copper using the MR modality (Table 1, FIG. 3). CG2, CG3, CG4, and CG5 respond to Cu^+ with relaxivity increases ranging from 92% to 360%. […] These values represent the largest relaxivity enhancements observed to date for metal-activated MR contrast agents and a ca. 9-fold improvement in copper ion response compared to CG1 (41% increase). The observed differences in turn-on Cu^+ responses for benzyl-substituted CG4 (290% increase) versus methyl-substituted CG5 (92% increase) with the same pyridyl-thioether receptor show the marked effects that small peripheral substitutions can have on relaxivity properties.

[5] = Nuclear magnetic relaxation dispersion (NMRD) profiles, Solomon-Bloembergen-Morgan fit; format: physicochemical; details: for τs0 (electronic relaxation time at zero field) / r1p 20 MHz 25° C. / a (distance of closest approach of outer-sphere water protons) / Δ^2 (average quadratic transient zero field splitting) / τv (electronic correlation time) / q / τR (rotational correlation time): copper free; for r1p 20 MHz 25° C.: 0.5 mM, 20 mM HEPES pH 7; for a (distance of closest approach of outer-sphere water protons) / Δ^2 (average quadratic transient zero field splitting) / τv (electronic correlation time): best-fit value; for q: fixed in the fitting procedure; for τR (rotational correlation time): not experimentally determined, assumed equal to corresponding q ≠ 0 complex (CG5: average of the other complexes)
Method: FIG. 9. ^1H Nuclear magnetic relaxation dispersion profiles of CG3 and CG3+Cu^+ acquired at 25° C. The solid lines represent the best fit profiles.
As a secondary, independent set of experiments to further probe the mechanisms of copper ion sensing by the CG contrast agents, we also performed nuclear magnetic relaxation dispersion (NMRD) measurements of these sensors in the absence and in the presence of copper ions using a field cycling relaxometer (FIG. 9). The profiles obtained were analyzed following Solomon-Bloembergen-Morgan theory^36-38 for the inner-sphere relaxivity and the Freed model^115 for the outer-sphere relaxivity, fixing the diffusion coefficient (D) at […], the distance between Gd^3+ and the inner sphere water protons (r) at 3.1 Å, and the inner sphere exchange lifetime (τM) at 160 ns, the reported value for the parent complex Gd^3+-DO3A. Profiles were obtained for all compounds in the copper-free state. Profiles in the presence of Cu^n+ were obtained for CG2-4 (Cu^+) and CG6 (Cu^2+).
In fact, the measured outer-sphere relaxivities were so low that, in order to obtain a reasonable fit, the distance of closest approach of outer-sphere water protons (a) was allowed to vary. The distances obtained for the CG complexes (4.2-4.8 Å) were markedly longer than what is observed for typical Gd^3+ contrast agents with greater water access (3.8-4 Å). These values correlate with the copper-free relaxivities of CG2-6; longer a values give lower relaxivities and shorter a values give higher relaxivities. For Cu^+-sensing agents CG2-4, the estimated change in q of 2 as determined by DIS measurements was also observed in the fitted NMRD data. In fact, any attempt to fit the observed NMRD profiles with q=1 led to very poor agreement between experimental and calculated values. The change in q of 1 for CG6 upon addition of Cu^2+ as determined by NMRD is consistent with the lower turn-on response observed with this complex compared to CG2-4. The reduced q modulation for CG6 relative to CG2-4 could indicate that the carboxylic acid moiety used for Cu^2+ binding also interacts with the Gd^3+ center in the Cu^2+-bound state. The fitted rotational correlation times (τR) for copper-bound CG complexes all fall within the range expected for Gd^3+ complexes with molecular weights of 700-800 D. τR values for copper-free CG2-6 were fixed to values close to their copper-bound analogues as fits of NMRD data for q=0 complexes are not sensitive to small changes in τR. The values of Δ^2 (average quadratic transient zero field splitting), τv (electronic correlation time), and τs0 (electronic relaxation time at zero field), which govern the electronic relaxation time, are relatively similar to each other. These NMRD values are closer to those of Gd^3+-DTPA than Gd^3+-DOTA, reflecting the asymmetry of CG2-6.^64

[6] = Metal ion selectivity of relaxivity response (competing metal ions alone or with added copper); format: physicochemical; details: relaxivity at 60 MHz, 20 mM HEPES, pH 7, 37° C.
Method: FIG. 6. Relaxivity responses of CG2 to various metal ions. White bars represent the addition of an excess of the appropriate metal ion (10 mM for Na^+, 2 mM for K^+, Mg^2+, and Ca^2+, and 0.2 mM for Fe^2+, Fe^3+, Cu^2+) to a 0.2 mM solution of CG2. Response to Zn^2+ was measured both at 0.2 mM Zn^2+ (Zn^2+1×) and 2 mM Zn^2+ (Zn^2+10×). Black bars represent the subsequent addition of 0.2 mM Cu^+ to the CG2 solution. Relaxivity measurements were acquired at 37° C. in 20 mM HEPES buffer, pH 7, at a proton Larmor frequency of 60 MHz.
The potential ability of this new family of CG sensors to sense bioavailable copper pools in either or both its predominant oxidation states represents a significant advance over the initial CG1 compound.

[7] = Apparent Kd for Cu+ by UV-visible absorption with competing ligand thiourea; format: binding; details: 20 mM HEPES buffer, pH 7, 25° C., 1:1 stoichiometry assumed, read-out: Kd (apparent dissociation constant)
Method: FIG. 5. Normalized absorbance response of 0.2 mM CG2-6 to buffered Cu^+ (CG2-5) or Cu^2+ (CG6) solutions for Kd value determination. Spectra were acquired in 20 mM HEPES, pH 7.

[8] = Longitudinal relaxivity (r1) turn-on response to Cu2+ from T1 measurements at 60 MHz; format: physicochemical; details: pH 7, 37° C.
Method: as §1, §2

−Δ ppm/[Dy] (DIS slope) ([1]; 1 equiv Cu^+) | q (estimated number of inner-sphere water molecules) ([1]; 1 equiv Cu^+, calculated from q = 9 DyCl3) | −Δ ppm/[Dy] (DIS slope) ([1]; no Cu^+) | relaxivity ([2]; 20 mM HEPES buffer at 60 MHz and 37° C.) [mM⁻¹ s⁻¹] | Cu^2+/+ E1/2 [3] [V vs. SHE] | r1 (1 equiv Cu) [4] | τs0 (electronic relaxation time at zero field) [5] [ps] | r1p 20 MHz 25° C. [5] [mM⁻¹ s⁻¹] | a (distance of closest approach of outer-sphere water protons) [5] [Å] | Δ^2 (average quadratic transient zero field splitting) [5] | τv (electronic correlation time) [5] [ps] | q [5] | τR (rotational correlation time) [5] | r1 (no Cu) [2] [mM⁻¹ s⁻¹] | pKd [7] | change in q ([5]; upon addition of Cu^2+, determined by NMRD) | r1 (1 equiv Cu) ([8]; 1 equiv Cu^2+, 20 mM HEPES buffer) | Structure (SMILES) | redox specificity of relaxivity response (Cu^+ vs Cu^2+) [6] | % increase in r1 ([4]; 1 equiv Cu^+ vs no Cu, 20 mM HEPES) [%] | % increase in r1 ([8]; 1 equiv Cu^2+ vs no Cu, 20 mM HEPES) [%]
72 ppm/(mol/kg H2O) | 2.0 | 9 ppm/(mol/kg H2O) | – | – | – | – | – | – | – | – | – | – | – | – | – | – | CCSCCN(CCSCC)Cc1cccc(CN2CCN(CC(=O)[O-])CCN(CC(=O)[O-])CCN(CC(=O)[O-])CC2)n1.[Dy+3] [DyCG2] | – | – | –
– | – | – | < 0.1 | – | – | – | – | – | – | – | – | – | – | – | – | – | O=S(=O)([O-])[O-].[Cu+2] [CuSO4] | – | – | –
– | – | – | – | 0.40 | 6.6^b mM^−1s^−1 | 99 | 2.1 | 4.2 ± 0.15 | 3.4 ± 1.4 10^19 s^−2 | 25 ± 7.7 | 0^c | 130^d ps | 1.7 | 10.85 | – | – | CCSCCN(Cc1ccccc1)Cc1cccc(CN2CCN(CC(=O)[O-])CCN(CC(=O)[O-])CCN(CC(=O)[O-])CC2)n1.[Gd+3] [CG4] | give turn-on relaxivity increases with Cu^+ but do not respond to Cu^2+ | – | –
– | – | – | – | – | 3.8 mM^−1s^−1 and 3.8^b,c mM^−1s^−1 | 61 | 2.2 | 4.2 ± 0.13 | 8.4 ± 2.0 10^19 s^−2 | 16 ± 2.7 | 0^c | 80^d ps | 2.2 | – | 1 | 3.8 mM^−1s^−1 and 3.8^b,c mM^−1s^−1 | CCSCCN(CC(=O)[O-])Cc1cccc(CN2CCN(CC(=O)[O-])CCN(CC(=O)[O-])CCN(CC(=O)[O-])CC2)n1.[Gd+3] [CG6] | responds to both Cu^+ and Cu^2+ with the same relaxivity turn-on | 73 | 73
